Earlier results as cited in patent publication US5672583A, “Carboxy-peptidyl derivatives as antidegenerative active agents” (Merck & Co., Inc., priority 1995, dated 1997).

Tests used:
[1] = biological target: rabbit bone proteoglycanase (Oryctolagus cuniculus, UniProt P28863); conditions: Delaisse et al., Biochem. Biophys. Res. Commun. 133, 483-90 (1985)
[2] = biological target: T1, human rheumatoid synovial collagenase (Homo sapiens, UniProt P03956); conditions: Delaisse et al., Biochem. Biophys. Res. Commun. 133, 483-90 (1985)
T1 sequence (P03956 100-469): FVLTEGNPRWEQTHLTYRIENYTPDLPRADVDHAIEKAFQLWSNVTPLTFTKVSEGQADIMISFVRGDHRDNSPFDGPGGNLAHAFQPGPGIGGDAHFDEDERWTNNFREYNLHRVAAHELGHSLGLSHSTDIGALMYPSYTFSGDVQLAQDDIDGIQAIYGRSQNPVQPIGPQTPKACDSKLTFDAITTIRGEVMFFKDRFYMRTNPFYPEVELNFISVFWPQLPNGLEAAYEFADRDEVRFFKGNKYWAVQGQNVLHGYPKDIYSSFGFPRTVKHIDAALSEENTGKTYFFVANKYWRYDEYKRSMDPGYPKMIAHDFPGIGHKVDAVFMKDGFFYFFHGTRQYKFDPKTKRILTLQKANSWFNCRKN

Chain of rabbit bone proteoglycanase (P28863 101-478): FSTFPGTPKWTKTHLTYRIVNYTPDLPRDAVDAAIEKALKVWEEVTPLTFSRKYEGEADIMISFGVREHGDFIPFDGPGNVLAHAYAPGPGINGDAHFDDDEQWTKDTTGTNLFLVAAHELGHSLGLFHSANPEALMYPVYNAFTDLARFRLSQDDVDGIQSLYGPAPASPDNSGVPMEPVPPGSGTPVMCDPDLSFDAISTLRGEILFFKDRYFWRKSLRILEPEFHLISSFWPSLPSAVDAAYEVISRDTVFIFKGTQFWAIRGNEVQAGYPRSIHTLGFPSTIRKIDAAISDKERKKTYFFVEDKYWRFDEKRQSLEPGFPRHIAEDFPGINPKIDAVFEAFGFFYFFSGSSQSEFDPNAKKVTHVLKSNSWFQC

IC50 [1]: 500 nM | IC50 [2]: 800 nM
SMILES: CNC(=O)[C@H](Cc1ccc(OC)cc1)NC(=O)[C@H](CC(C)C)NC(CCNC(=O)OCc1ccccc1)C(=O)O (stereo partly drawn) [N-[3-(benzyloxycarbonyl)amino-1-carboxy-n-propyl]-L-leucyl-O-methyl-L-tyrosine, N-methylamide]
